Measurements from article PMC8196580, “Identification of Kaurane-Type Diterpenes as Inhibitors of Leishmania Pteridine Reductase I” (Molecules, 2021).
Where two headings read alike, the source gives them in different places.

Tests used:
LmPTR1 = molecular target: T1, LmPTR1 (Leishmania major, UniProt Q01782); experiment: LmPTR1 enzyme inhibition assay (spectrophotometric, NADPH oxidation at 340 nm); format: biochemical; conditions: for IC50: NADPH 250 µM, pH 6.0, 30 °C, 0.1–128 µM
T1 construct: made in house
T1 sequence (Q01782 1-288): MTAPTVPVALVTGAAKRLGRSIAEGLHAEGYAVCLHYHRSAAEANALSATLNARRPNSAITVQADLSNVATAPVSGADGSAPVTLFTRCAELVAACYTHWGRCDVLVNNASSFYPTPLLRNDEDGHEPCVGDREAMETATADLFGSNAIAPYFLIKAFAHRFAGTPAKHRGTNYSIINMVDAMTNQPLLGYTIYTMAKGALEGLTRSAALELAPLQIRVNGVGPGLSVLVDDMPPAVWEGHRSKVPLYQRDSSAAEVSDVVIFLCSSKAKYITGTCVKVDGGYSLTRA
Protocol: The selected synthetic diterpene esters 135, 301, 302, 301a, and 302a were tested in vitro to experimentally determine their abilities to inhibit the enzymatic activity of LmPTR1 as an extension of the results provided by the in silico screening. […] The IC50 was then calculated for the tested diterpenes, and these values were used to calculate the apparent inhibitory constant (Ki^app) (Table 3) using the Cheng–Prusoff equation, assuming reversible competitive inhibition and 1:1 stoichiometry. PMA, a known PTR1 inhibitor, was used as a positive control. […] Therefore, a reasonable inference based on this small set of compounds is that the presence of a p-hydroxyl group at the phenylpropanoid moiety might favor inhibitory activity, whereas a 9β-hydroxyl group at the diterpene moiety has a negative influence on LmPTR1 inhibition.
Recombinant LmPTR1 enzyme was obtained, purified, and kinetically characterized, as reported previously. The in vitro assessment of selected diterpenes (i.e., 135, 301, 302, 301a, and 302a) for LmPTR1 inhibitory activity was performed through the spectrophotometric monitoring of the enzymatic activity under balanced conditions: LmPTR1 (30 µg), 7,8-dihydro-L-biopterin (DHB, 20 µM), sodium citrate buffer (20 mM, pH 6.0), 30 °C, and a final assay volume of 600 µL. Each reaction was started by the addition of 250 µM NADPH. Absorbance was monitored at 340 nm (i.e., oxidation of NADPH to NADP+) for 240 s, and the resulting profile was used to measure the initial reaction rate (IRR) through the respective slope by linear regression. All recordings were performed in triplicate. PMA was used as the positive control. The resulting IRR values were used to calculate the % inhibition, as 100 − (Ri/Rc × 100), where Ri is the IRR in the presence of the inhibitor and Rc is the IRR in the absence of inhibitors (1% DMSO v/v final concentration). The % inhibition for at least five concentrations (range: 0.1–128 µM) for each test compound (diterpenes and PMA) were calculated, and concentration-response curves (% inhibition vs. Log[inhibitor]) were obtained by non-linear regression to determine the IC50 using GraphPad Prism 5.0 (GraphPad, San Diego, CA, USA). Finally, Ki^app values were calculated using the Cheng–Prusoff equation for competitive inhibition, assuming a 1:1 stoichiometry and that the inhibitor-binding reactions are reversible: Ki^app = IC50/(1 + [S]/Km), where [S] is the substrate (DHB) concentration and Km is the Michaelis constant. The substrate Km was calculated during the kinetic characterization of purified, recombinant LmPTR1.

Plasmodium falciparum = tested on: Plasmodium falciparum; design: method as in earlier work; conditions: in vitro, ref 27 (Nogueira et al.); cited from earlier work
Leishmania donovani = tested on: Leishmania donovani; design: method as in earlier work; conditions: in vitro, ref 27 (Nogueira et al.); cited from earlier work
L6 cells = tested on: L6 cells; design: method as in earlier work; conditions: in comparison with L6 cells; ref 27 (Nogueira et al.); cited from earlier work
L. major [1] = experiment: ChEMBL dataset of pIC50 values against L. major used for the RF model (Table S1); format: cell-based, Leishmania major; note: call rule not given here
L. major [2] = tested on: L. major; design: method as in ChEMBL; conditions: ref ChEMBL, cited from earlier work
[3] = recombinant LmPTR1, DHB 20 µM, read-out: IC50
[4] = Active/Inactive class assigned to the ChEMBL pIC50 value for Random forest model construction, ref ChEMBL
[5] = ChemBL structures with pIC50 values used for Random forest model construction, L. major

Ki (LmPTR1; read-out: Ki^app) [nM] | IC50 (LmPTR1; [3]) [µM] | SMILES | Outcome (L. major [1]; [4]) | pIC50 Value (L. major [2]; [5]) | also measured
– | – | CCc1nc(N)nc(N)c1-c1ccc(Cl)cc1 [PMA, pyrimethamine, reference compound] | – | – | Ki (LmPTR1): 240 nM; IC50 (LmPTR1; IC50, recombinant LmPTR1, DHB 20 µM): 1.11 µM
1330 | 6.1 | C=C1CC23CCC4C(C)(CCC(OC(=O)C=Cc5ccc(O)cc5)C4(C)C(=O)O)C2CCC1C3 (stereo not drawn) [302a, 3α-p-coumaroyloxy-ent-kaur-16-en-19-oic acid] | – | – | improvement of inhibitory activity versus 302 (LmPTR1; 3α-p-coumaroyloxy instead of 3α-cinnamoyloxy): approximately 60%
2100 | 9.6 | C=C1C[C@@]23CCC4[C@](C)(C(=O)O)[C@H](OC(=O)/C=C/c5ccccc5)CC[C@@]4(C)[C@@H]2CC[C@@H]1C3 (stereo partly drawn) [compound 302, 3α-cinnamoyloxy-ent-kaur-16-en-19-oic acid] | – | – | –
1880 | 8.6 | C=C1C[C@@]23CC[C@@H]4[C@](C)(C(=O)O[C@H]5C=C(C)[C@@H](O)C[C@@H]5C(C)C)CCC[C@@]4(C)C2CC[C@@H]1C3 (stereo partly drawn) [compound 135, 2β-hydroxy-menth-6-en-5β-yl ent-kaurenoate] | – | – | –
5080 | 23.2 | C=C1CC23CCC4C(C)(C(=O)O)C(OC(=O)C=Cc5ccc(O)cc5)CCC4(C)C2(O)CCC1C3 (stereo not drawn) [301a, 3α-p-coumaroyloxy-9β-hydroxy-ent-kaur-16-en-19-oic Acid] | – | – | –
– | – | C=C1C[C@@]23CC[C@@H]4[C@](C)(CO)[C@H](O)CC[C@@]4(C)[C@@H]2CC[C@@H]1C3 (single isomer, unassigned; ent-3) [ent-3-α-hydroxy-kaur-16-en-18-ol] | – | – | IC50 (Plasmodium falciparum): 3.5 µM; IC50 (Leishmania donovani): 2500 nM; Selectivity index, SI (L6 cells): > 10
4640 | 21.2 | C=C1C[C@@]23CCC4[C@](C)(C(=O)O)[C@H](OC(=O)/C=C/c5ccccc5)CC[C@@]4(C)[C@]2(O)CC[C@@H]1C3 (stereo partly drawn) [compound 301, 3α-Cinnamoyloxy-9β-hydroxy-ent-kaur-16-en-19-oic Acid] | – | – | –
– | – | O=C(c1ccccc1)N1CCN(c2nnc(-c3ccc([N+](=O)[O-])s3)s2)CC1 [CHEMBL195362] | Inactive | 4.60 | –
– | – | COc1cc(OC)c2c(C)[n+](-c3ccc(C)cc3C)c(C)cc2c1.F[B-](F)(F)F [CHEMBL482395] | – | – | Outcome (L. major [1]; Active/Inactive class assigned to ChemBL structures for Random forest model construction (Table S1)): Active; pIC50 Value (L. major [2]; ChemBL structures with pIC50 values used for Random forest model construction (Table S1)): 5.48
– | – | CN1CCN(S(=O)(=O)c2ccc(-c3ccc4c(Nc5ncc(Cl)cn5)ccnc4c3)cc2)CC1 [CHEMBL3637895] | Active | 5.07 | –
– | – | COc1cc(OC)c2c(C)[n+](-c3ccc(O)cc3)c(C)cc2c1.O=C([O-])C(F)(F)F [CHEMBL480760] | Inactive | 4.80 | –
– | – | COc1ccc(-c2c(-c3ccccc3)nc3cnccn23)cc1 [CHEMBL3634351] | Inactive | 4.76 | –
